The values that follow are results of earlier work, collected in patent publication US20160220512A1, “MODIFIED RELEASE PHARMACEUTICAL FORMULATIONS” (RUBICON RESEARCH PRIVATE LIMITED, priority 2013, published 2016).

For data set [1], the system named is N-methyl d-aspartate (NMDA) receptor. As to conditions: uncompetitive NMDA receptor antagonist.
The conditions of data set [2]: memantine and its salts.

In the case of `CC12CC3CC(C)(C1)CC(N)(C3)C2` [Memantine, 1-amino-3,5-dimethyladamantane], the “affinity for the receptor” value in data set [1] is on record as “moderate affinity”. In addition, in data set [2], the BCS classification result is reported as “BCS Class I”, the permeability result was “highly permeable” and the solubility result is reported as “highly soluble”.
